Test results as given in patent US6608086B2, “Dihydropyridines and new uses thereof” (Synaptic Pharmaceutical Corporation, priority 1993, dated 2003).
Counter-ions that a name gives are not always drawn. Like-named read-outs stand apart in the source and are kept apart here.

How the values were obtained:
α2C receptor = biological target: T1, α2C receptor (Homo sapiens, UniProt P18825); assay: Competition binding, [3H]rauwolscine, human α2C receptor
T1 construct: host or cells: LM(tk-) cells, line L-α2C
T1 sequence (P18825 1-462): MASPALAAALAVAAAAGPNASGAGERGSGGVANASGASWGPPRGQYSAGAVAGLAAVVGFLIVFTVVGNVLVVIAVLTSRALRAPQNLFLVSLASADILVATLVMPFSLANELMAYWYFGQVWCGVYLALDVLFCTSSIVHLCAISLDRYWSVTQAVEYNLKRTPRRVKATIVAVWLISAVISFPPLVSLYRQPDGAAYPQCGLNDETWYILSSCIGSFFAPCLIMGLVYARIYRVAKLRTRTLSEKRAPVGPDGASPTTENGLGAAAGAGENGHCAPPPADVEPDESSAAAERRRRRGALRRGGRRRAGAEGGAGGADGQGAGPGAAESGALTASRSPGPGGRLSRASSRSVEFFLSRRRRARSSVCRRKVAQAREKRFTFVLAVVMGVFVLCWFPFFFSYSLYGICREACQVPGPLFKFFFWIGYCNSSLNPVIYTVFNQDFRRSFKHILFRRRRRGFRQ
Summary of the method: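 Lysates of LM(tk−) cells stably expressing each α2 subtype were suspended in 25 mM glycylglycine buffer (pH 7.6 at room temperature). Equilibrium competition binding used 0.5 nM [3H]rauwolscine, with nonspecific binding defined by 10 μM phentolamine; bound radioligand was separated by GF/B filtration.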

[1] = biological target: T2, α1A Human Adrenergic Receptor (Homo sapiens, UniProt P25100); assay: Radioligand binding, [3H]prazosin, cloned human α1A adrenergic receptor
T2 construct: The entire coding region of α1A (1719 bp); expressed in transfected cells
T2 sequence (P25100 1-572): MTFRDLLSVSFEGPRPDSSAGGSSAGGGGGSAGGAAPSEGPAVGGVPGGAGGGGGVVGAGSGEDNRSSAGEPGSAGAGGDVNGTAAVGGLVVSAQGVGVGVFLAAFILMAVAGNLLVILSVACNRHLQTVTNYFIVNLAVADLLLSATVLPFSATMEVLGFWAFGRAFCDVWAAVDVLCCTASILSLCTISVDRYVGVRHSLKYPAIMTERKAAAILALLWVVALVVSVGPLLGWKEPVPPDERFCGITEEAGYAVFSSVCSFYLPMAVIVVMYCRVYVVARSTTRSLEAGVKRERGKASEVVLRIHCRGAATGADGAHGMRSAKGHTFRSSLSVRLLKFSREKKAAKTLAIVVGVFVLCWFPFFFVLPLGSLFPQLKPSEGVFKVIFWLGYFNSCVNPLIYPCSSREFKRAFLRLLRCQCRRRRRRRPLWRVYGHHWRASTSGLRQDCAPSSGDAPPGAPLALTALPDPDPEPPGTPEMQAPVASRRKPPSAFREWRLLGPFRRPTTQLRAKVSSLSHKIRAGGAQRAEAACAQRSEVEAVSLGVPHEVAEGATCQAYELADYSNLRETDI
Summary of the method: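 Membranes from LM(tk−) cells transfected with cloned human α1A receptor, prepared in 50 mM Tris-HCl, 1 mM MgCl2, 0.1% ascorbic acid pH 7.5, were incubated with 0.5 nM [3H]prazosin at 37° C for 20 min. Nonspecific binding was defined with 10 μM phentolamine; bound ligand was separated by GF/B filtration.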

[2] = biological target: T3, α1C Human Adrenergic Receptor (Homo sapiens, UniProt P35348); assay: Radioligand binding, [3H]prazosin, cloned human α1C adrenergic receptor
T3 construct: The entire coding region of α1C (1401 bp); expressed in transfected cells
T3 sequence (P35348 1-466): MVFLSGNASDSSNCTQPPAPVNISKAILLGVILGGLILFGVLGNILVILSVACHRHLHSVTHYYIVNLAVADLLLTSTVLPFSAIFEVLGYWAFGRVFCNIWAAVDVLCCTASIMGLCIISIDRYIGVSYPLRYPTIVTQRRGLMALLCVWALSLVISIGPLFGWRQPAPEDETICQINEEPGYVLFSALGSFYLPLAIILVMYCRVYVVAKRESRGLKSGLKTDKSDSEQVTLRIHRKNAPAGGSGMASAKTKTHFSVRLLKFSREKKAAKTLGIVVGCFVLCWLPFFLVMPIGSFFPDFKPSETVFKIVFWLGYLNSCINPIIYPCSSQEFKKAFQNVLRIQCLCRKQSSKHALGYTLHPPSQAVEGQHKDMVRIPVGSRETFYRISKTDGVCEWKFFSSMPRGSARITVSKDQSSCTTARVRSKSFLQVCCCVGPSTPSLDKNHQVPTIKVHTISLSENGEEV
Summary of the method: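 Membranes from LM(tk−) cells stably expressing the cloned human α1C receptor were incubated with 0.5 nM [3H]prazosin at 37° C. for 20 min in 50 mM Tris-HCl, 1 mM MgCl2, 0.1% ascorbic acid, pH 7.5. Nonspecific binding was defined with 10 μM phentolamine, and bound ligand was separated by GF/B filtration.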

[3] = [3H]rauwolscine, human α2C receptor, LM(tk−) cells
[4] = [3H]prazosin, cloned human α1A receptor, LM(tk−) cell membranes
[5] = cloned human α1C receptor, LM(tk−) cell membranes
[6] = [3H]rauwolscine, LM(tk-) cell line L-α2C, SEM and n in lines below, read-out: pKi alpha-2 2c (converted)
[7] = [3H]prazosin, cloned human receptor in LM(tk-) cell membranes, SEM and n in lines below, read-out: pKi alpha-1 1a (converted)
[8] = cloned human receptor in LM(tk-) cell membranes, SEM and n in lines below, read-out: pKi alpha-1 1c (converted)
[9] = [3H]rauwolscine, human receptor, LM(tk-) cell lysates, mean, read-out: PKi alpha-2 2c (converted)
[10] = [3H]prazosin, cloned human receptor, LM(tk-) cell membranes, mean, read-out: PKi alpha-1 1a (converted)
[11] = cloned human receptor, LM(tk-) cell membranes, mean, read-out: PKi alpha-1 1c (converted)

In the case of `CCC1=C(C(=O)NC)C(c2ccc([N+](=O)[O-])cc2)C(C(=O)NCCCN2CCC(C#N)(c3ccccc3)CC2)=C(CC)N1` (stereo not drawn) [Example 126, 3-{N-[3-(4-Cyano-4-phenylpiperidin-1-yl)propyl]}carboxamido-1,4-dihydro-2,6-diethyl-5-(1-methyl)carboxamido-4-(4-nitrophenyl)pyridine], the “pKi alpha-2 2c” value (α2C receptor; [3]) is reported as 5.36, the “pKi alpha-1 1a” value [1, 4] is reported as 5.15 and the “pKi alpha-1 1c” value [2, 5] is reported as 7.95.

`CCC1=C(C(=O)OCCO)C(c2ccc([N+](=O)[O-])cc2)C(C(=O)NCCCN2CCC(c3ccccc3)(c3ccccc3)CC2)=C(COC)N1` (stereo not drawn) [Example 246] showed a Ki (α2C receptor; [3H]rauwolscine, human α2C receptor, LM(tk-) cells, read-out: PKi alpha-2 2c (converted)) of 2400 nM, a Ki ([1]; PKi alpha-1 1a, [3H]prazosin, cloned human α1A receptor, LM(tk-) cell membranes) of 316 nM and a Ki ([2]; PKi alpha-1 1c, cloned human α1C receptor, LM(tk-) cell membranes) of 2.75 nM.

In the case of “5-Acetyl-1,4-dihydro-2,6-dimethyl-4-(4-nitrophenyl)-3-[3-(4,4-diphenylpiperidin-1-yl)propoxy]carbonylpyridine hydrochloride hemihydrate [Example 49]”, the “pKi alpha-2 2c” value (α2C receptor) is reported as 6.86, the “pKi alpha-1 1a” value [1] is reported as 6.94 and the “pKi alpha-1 1c” value ([2]; cloned human receptor in LM(tk-) cell membranes, SEM and n in lines below) is reported as 8.56.

`COC(=O)C1=C(C)NC(c2ccoc2)=C(C(=O)NCCCN2CCC(c3ccccc3)CC2)C1c1ccc([N+](=O)[O-])cc1` (stereo not drawn) [Example 65, 2-(Furan-3-yl)-1,4-dihydro-5-methoxycarbonyl-6-methyl-4-(4-nitrophenyl)-5-{N-[3-(4-phenylpiperidin-1-yl)propyl]}carboxamidopyridine hydrochloride hydrate] gave a Ki (α2C receptor; [6]) of 83.2 nM, a Ki [1, 7] of 129 nM and a Ki [2, 8] of 1.05 nM.

`CCC1=C(C(N)=O)C(c2ccc([N+](=O)[O-])cc2)C(C(=O)NCCCN2CCC(c3ccccc3)CC2)=C(CC)N1` (stereo not drawn) [Example 121, 5-Carboxamido-2,6-diethyl-1,4-dihydro-4-(4-nitrophenyl)-3-{N-[3-(4-phenylpiperidin-1-yl)propyl]}carboxamidopyridine] was tested, and the Ki (α2C receptor; [3H]rauwolscine, human α2C receptor, LM(tk−) cells, read-out: pKi alpha-2 2c (converted)) was 191 nM, the Ki ([1]; [3H]prazosin, cloned human α1A receptor, LM(tk−) cell membranes, read-out: pKi alpha-1 1a (converted)) was 240 nM and the Ki ([2]; cloned human α1C receptor, LM(tk−) cell membranes, read-out: pKi alpha-1 1c (converted)) was 1.32 nM.

Compound `COC(=O)C1=C(C)NC(C)=C(C(=O)NCCCN2CCC(c3ccccc3)CC2)C1c1ccc(C)cc1` (stereo not drawn) [Example 31, 1,4-Dihydro-3-methoxycarbonyl-2,6-dimethyl-4-(4-methylphenyl)-5-(N-(3-(4-phenylpiperidin-1-yl)propyl)carboxamido)pyridine] has a Ki (α2C receptor; [6]) of 52.5 nM, a Ki [1, 7] of 112 nM and a Ki [2, 8] of 1.17 nM.

`COc1cc2c(cc1OC)CN(CCCNC(=O)C1=C(C)NC(C)=C(C(N)=O)C1c1ccc([N+](=O)[O-])cc1)CC2` (stereo not drawn) [Example 58, 5-Carboxamido-1,4-dihydro-3-{N-[3-(1,2,3,4-tetrahydro-6,7-dimethoxyisoquinolin-2-yl)propyl]}carboxamido-2,6-dimethyl-4-(4-nitrophenyl)pyridine hydrochloride] showed a Ki (α2C receptor; [6]) of 50.1 nM, a Ki [1, 7] of 3020 nM and a Ki [2, 8] of 331 nM.

`CCC1=C(C(N)=O)C(c2ccc([N+](=O)[O-])cc2)C(C(=O)NCCCN2CCC(C(=O)OC)(c3ccccc3)CC2)=C(CCCCN)N1` (stereo not drawn) [Example 166, 2-(4-Aminobutyl)-5-carboxamido-6-ethyl-1,4-dihydro-3-{N-[3-(4-methoxycarbonyl-4-phenylpiperidin-1-yl)propyl]}carboxamido-4-(4-nitrophenyl)pyridine] showed a Ki (α2C receptor; [9]) of 1020 nM, a Ki [1, 10] of 2340 nM and a Ki [2, 11] of 1.29 nM.

With `CCNC(=O)C1=C(CC)NC(COCCN)=C(C(=O)NCCCN2CCC(C(=O)OCC)(c3ccccc3)CC2)C1c1ccc([N+](=O)[O-])cc1` (stereo not drawn) [Example 192, 2-[(2-Aminoethoxy)methyl]-3-{N-[3-(4-ethoxycarbonyl-4-phenyl-piperidin-1-yl)propyl]}carboxamido-1,4-dihydro-6-ethyl-5-(N-ethyl)carboxamido-4-(4-nitrophenyl)pyridine] the Ki (α2C receptor; [9]) was 1480 nM, the Ki [1, 10] was 3020 nM and the Ki [2, 11] was 3.09 nM.

In the case of `CCC1=C(C(N)=O)C(c2ccc([N+](=O)[O-])cc2)C(C(=O)NCCCN2CCC(c3ccccc3)(c3ccccc3)CC2)=C(CC)N1` (stereo not drawn) [Example 120, 5-Carboxamido-2,6-diethyl-1,4-dihydro-4-(4-nitrophenyl)-3-{N-[3-(4,4-diphenylpiperidin-1-yl)propyl]} carboxamidopyridine], the “pKi alpha-2 2c” value (α2C receptor; [3]) is reported as 6.72, the “pKi alpha-1 1a” value [1, 4] is reported as 6.33 and the “pKi alpha-1 1c” value [2, 5] is reported as 8.97.
